# Assay results as given in ChEMBL document CHEMBL1201862, “PubChem BioAssay data set” (2004).
#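 Assay format: 96-well plates, 48-hour exposure. Abbreviation: GI50, concentration required for 50% inhibition of growth.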 The source made the active and inactive calls. Cut-off read from the data, not from the text of the source: active = GI50 up to about 1.1 µM and inactive = higher.
# What was measured:
# Assay in all cases: NCI anticancer screen, dose series, 48 h
# 786-0 = tested on: 786-0
# A498 = tested on: A498
# A549 = tested on: A549
# ACHN = tested on: ACHN
# CAKI-1 = tested on: CAKI-1
# CCRF-CEM = tested on: CCRF-CEM
# COLO 205 = tested on: COLO 205
# DLD-1 = tested on: DLD-1
# DMS-114 = tested on: DMS-114
# DMS-273 = tested on: DMS-273
# EKVX = tested on: EKVX
# HCC 2998 = tested on: HCC 2998
# HCT-116 = tested on: HCT-116
# HCT-15 = tested on: HCT-15
# HL-60 = tested on: HL-60
# HOP-18 = tested on: HOP-18
# HOP-62 = tested on: HOP-62
# HOP-92 = tested on: HOP-92
# HT-29 = tested on: HT-29
# IGROV-1 = tested on: IGROV-1
# K562 = tested on: K562
# KM-20L2 = tested on: KM-20L2
# KM12 = tested on: KM12
# LOX IMVI = tested on: LOX IMVI
# LXFL 529 = tested on: LXFL 529
# M14 = tested on: M14
# M19-MEL = tested on: M19-MEL
# MOLT-4 = tested on: MOLT-4
# Malme-3M = tested on: Malme-3M
# NCI-H226 = tested on: NCI-H226
# NCI-H23 = tested on: NCI-H23
# NCI-H460 = tested on: NCI-H460
# NCI-H522 = tested on: NCI-H522
# OVCAR-3 = tested on: OVCAR-3
# OVCAR-4 = tested on: OVCAR-4
# OVCAR-5 = tested on: OVCAR-5
# OVCAR-8 = tested on: OVCAR-8
# RXF 393 = tested on: RXF 393
# RXF 631 = tested on: RXF 631
# SF-268 = tested on: SF-268
# SF-295 = tested on: SF-295
# SF-539 = tested on: SF-539
# SK-MEL-28 = tested on: SK-MEL-28
# SK-MEL-2 = tested on: SK-MEL-2
# SK-MEL-5 = tested on: SK-MEL-5
# SK-OV-3 = tested on: SK-OV-3
# SN12C = tested on: SN12C
# SNB-19 = tested on: SNB-19
# SNB-75 = tested on: SNB-75
# SNB-78 = tested on: SNB-78
# SR = tested on: SR
# SW-620 = tested on: SW-620
# TK-10 = tested on: TK-10
# U-251 = tested on: U-251
# UACC-257 = tested on: UACC-257
# UACC-62 = tested on: UACC-62
# UO-31 = tested on: UO-31
# RPMI-8226 = tested on: RPMI-8226
# XF498 = tested on: XF498
smiles,measurement,setting,value
Cc1cccc2cc3cccc(C(=O)NCCN(C)C)c3nc12,GI50,786-0,0.129 µM (active)
same,GI50,A498,0.045 µM (active)
same,GI50,A549,0.0171 µM (active)
same,GI50,ACHN,0.0257 µM (active)
same,GI50,CAKI-1,0.027 µM (active)
same,GI50,CCRF-CEM,0.0575 µM (active)
same,GI50,COLO 205,0.0798 µM (active)
same,GI50,DLD-1,0.119 µM (active)
same,GI50,DMS-114,0.115 µM (active)
same,GI50,DMS-273,0.0374 µM (active)
same,GI50,EKVX,0.362 µM (active)
same,GI50,HCC 2998,0.181 µM (active)
same,GI50,HCT-116,0.0354 µM (active)
same,GI50,HCT-15,0.0993 µM
same,GI50,HL-60,0.028 µM (active)
same,GI50,HOP-18,0.399 µM (active)
same,GI50,HOP-62,0.0745 µM (active)
same,GI50,HOP-92,0.185 µM (active)
same,GI50,HT-29,0.131 µM (active)
same,GI50,IGROV-1,0.38 µM (active)
same,GI50,K562,0.203 µM (active)
same,GI50,KM-20L2,0.242 µM (active)
same,GI50,KM12,0.397 µM (active)
same,GI50,LOX IMVI,0.083 µM (active)
same,GI50,LXFL 529,0.275 µM (active)
same,GI50,M14,0.433 µM (active)
same,GI50,M19-MEL,0.157 µM (active)
same,GI50,MOLT-4,< 0.01 µM (active)
same,GI50,Malme-3M,0.139 µM (active)
same,GI50,NCI-H226,0.0638 µM (active)
same,GI50,NCI-H23,0.171 µM (active)
same,GI50,NCI-H460,< 0.01 µM (active)
same,GI50,NCI-H522,0.151 µM (active)
same,GI50,OVCAR-3,0.366 µM (active)
same,GI50,OVCAR-4,0.27 µM (active)
same,GI50,OVCAR-5,0.292 µM (active)
same,GI50,OVCAR-8,0.0925 µM (active)
same,GI50,RXF 393,0.269 µM (active)
same,GI50,RXF 631,0.0538 µM (active)
same,GI50,SF-268,0.296 µM (active)
same,GI50,SF-295,0.131 µM (active)
same,GI50,SF-539,0.129 µM (active)
same,GI50,SK-MEL-28,0.519 µM (active)
same,GI50,SK-MEL-2,0.579 µM (active)
same,GI50,SK-MEL-5,0.173 µM (active)
same,GI50,SK-OV-3,0.138 µM (active)
same,GI50,SN12C,0.063 µM (active)
same,GI50,SNB-19,0.191 µM (active)
same,GI50,SNB-75,0.235 µM (active)
same,GI50,SNB-78,0.614 µM (active)
same,GI50,SR,0.0224 µM (active)
same,GI50,SW-620,0.0394 µM (active)
same,GI50,TK-10,0.317 µM (active)
same,GI50,U-251,0.0689 µM (active)
same,GI50,UACC-257,0.245 µM (active)
same,GI50,UACC-62,0.129 µM (active)
same,GI50,UO-31,0.083 µM (active)
COC(=O)NN1C(=O)C(=P(c2ccccc2)(c2ccccc2)c2ccccc2)C(C(=O)OC)=C1C,GI50,A498,> 100 µM (inactive)
same,GI50,ACHN,> 100 µM (inactive)
same,GI50,CAKI-1,> 100 µM (inactive)
same,GI50,CCRF-CEM,> 100 µM (inactive)
same,GI50,COLO 205,> 100 µM (inactive)
same,GI50,DMS-114,> 100 µM (inactive)
same,GI50,DMS-273,> 100 µM (inactive)
same,GI50,EKVX,> 100 µM (inactive)
same,GI50,HCT-15,> 100 µM
same,GI50,HL-60,52.5 µM (inactive)
same,GI50,HOP-18,> 100 µM (inactive)
same,GI50,HOP-92,12.6 µM (inactive)
same,GI50,HT-29,> 100 µM (inactive)
same,GI50,IGROV-1,> 100 µM (inactive)
same,GI50,K562,> 100 µM (inactive)
same,GI50,KM-20L2,> 100 µM (inactive)
same,GI50,LOX IMVI,> 100 µM (inactive)
same,GI50,LXFL 529,> 100 µM (inactive)
same,GI50,M14,> 100 µM (inactive)
same,GI50,M19-MEL,> 100 µM (inactive)
same,GI50,MOLT-4,> 100 µM (inactive)
same,GI50,Malme-3M,> 100 µM (inactive)
same,GI50,NCI-H226,> 100 µM (inactive)
same,GI50,NCI-H23,> 100 µM (inactive)
same,GI50,NCI-H460,> 100 µM (inactive)
same,GI50,NCI-H522,> 100 µM (inactive)
same,GI50,OVCAR-3,> 100 µM (inactive)
same,GI50,OVCAR-8,> 100 µM (inactive)
same,GI50,RPMI-8226,60.5 µM (inactive)
same,GI50,RXF 631,> 100 µM (inactive)
same,GI50,SF-268,> 100 µM (inactive)
same,GI50,SF-295,> 100 µM (inactive)
same,GI50,SF-539,> 100 µM (inactive)
same,GI50,SK-MEL-28,> 100 µM (inactive)
same,GI50,SK-MEL-2,> 100 µM (inactive)
same,GI50,SK-MEL-5,> 100 µM (inactive)
same,GI50,SK-OV-3,> 100 µM (inactive)
same,GI50,SN12C,> 100 µM (inactive)
same,GI50,SNB-19,> 100 µM (inactive)
same,GI50,SNB-75,> 100 µM (inactive)
same,GI50,SNB-78,> 100 µM (inactive)
same,GI50,SW-620,> 100 µM (inactive)
same,GI50,TK-10,> 100 µM (inactive)
same,GI50,U-251,> 100 µM (inactive)
same,GI50,UACC-62,> 100 µM (inactive)
same,GI50,UO-31,> 100 µM (inactive)
O=C1C(=O)N(C(=O)c2ccc(Cl)c(Cl)c2)c2ccccc21,GI50,786-0,> 100 µM (inactive)
same,GI50,A549,> 100 µM (inactive)
same,GI50,ACHN,> 100 µM (inactive)
same,GI50,CCRF-CEM,> 100 µM (inactive)
same,GI50,COLO 205,> 100 µM (inactive)
same,GI50,DLD-1,> 100 µM (inactive)
same,GI50,DMS-114,> 100 µM (inactive)
same,GI50,DMS-273,> 100 µM (inactive)
same,GI50,EKVX,> 100 µM (inactive)
same,GI50,HL-60,> 100 µM (inactive)
same,GI50,HOP-18,> 100 µM (inactive)
same,GI50,HT-29,> 100 µM (inactive)
same,GI50,IGROV-1,> 100 µM (inactive)
same,GI50,K562,> 100 µM (inactive)
same,GI50,KM12,> 100 µM (inactive)
same,GI50,LOX IMVI,> 100 µM (inactive)
same,GI50,LXFL 529,> 100 µM (inactive)
same,GI50,M14,> 100 µM (inactive)
same,GI50,M19-MEL,> 100 µM (inactive)
same,GI50,MOLT-4,> 100 µM (inactive)
same,GI50,NCI-H226,44.9 µM (inactive)
same,GI50,NCI-H23,> 100 µM (inactive)
same,GI50,OVCAR-3,> 100 µM (inactive)
same,GI50,OVCAR-4,> 100 µM (inactive)
same,GI50,OVCAR-5,> 100 µM (inactive)
same,GI50,OVCAR-8,> 100 µM (inactive)
same,GI50,RPMI-8226,> 100 µM (inactive)
same,GI50,RXF 393,> 100 µM (inactive)
same,GI50,RXF 631,> 100 µM (inactive)
same,GI50,SF-268,> 100 µM (inactive)
same,GI50,SF-295,> 100 µM (inactive)
same,GI50,SF-539,> 100 µM (inactive)
same,GI50,SK-MEL-28,> 100 µM (inactive)
same,GI50,SK-MEL-5,> 100 µM (inactive)
same,GI50,SK-OV-3,> 100 µM (inactive)
same,GI50,SNB-19,> 100 µM (inactive)
same,GI50,SNB-75,58.6 µM (inactive)
same,GI50,SNB-78,> 100 µM (inactive)
same,GI50,SR,> 100 µM (inactive)
same,GI50,SW-620,> 100 µM (inactive)
same,GI50,TK-10,> 100 µM (inactive)
same,GI50,U-251,> 100 µM (inactive)
same,GI50,UACC-62,> 100 µM (inactive)
same,GI50,UO-31,> 100 µM (inactive)
CCCn1c(SCC)c2ccccc2c1-c1nc(F)nc(F)n1,GI50,786-0,> 100 µM (inactive)
same,GI50,A498,> 100 µM (inactive)
same,GI50,A549,> 100 µM (inactive)
same,GI50,ACHN,> 100 µM (inactive)
same,GI50,CAKI-1,> 100 µM (inactive)
same,GI50,CCRF-CEM,> 100 µM (inactive)
same,GI50,COLO 205,> 100 µM (inactive)
same,GI50,DMS-114,> 100 µM (inactive)
same,GI50,DMS-273,> 100 µM (inactive)
same,GI50,EKVX,> 100 µM (inactive)
same,GI50,HCC 2998,> 100 µM (inactive)
same,GI50,HCT-116,> 100 µM (inactive)
same,GI50,HCT-15,> 100 µM
same,GI50,HL-60,> 100 µM (inactive)
same,GI50,HOP-62,> 100 µM (inactive)
same,GI50,HOP-92,> 100 µM (inactive)
same,GI50,HT-29,> 100 µM (inactive)
same,GI50,K562,> 100 µM (inactive)
same,GI50,KM-20L2,> 100 µM (inactive)
same,GI50,KM12,> 100 µM (inactive)
same,GI50,LOX IMVI,> 100 µM (inactive)
same,GI50,LXFL 529,> 100 µM (inactive)
same,GI50,M14,> 100 µM (inactive)
same,GI50,M19-MEL,> 100 µM (inactive)
same,GI50,MOLT-4,> 100 µM (inactive)
same,GI50,Malme-3M,> 100 µM (inactive)
same,GI50,NCI-H226,> 100 µM (inactive)
same,GI50,NCI-H23,> 100 µM (inactive)
same,GI50,NCI-H460,> 100 µM (inactive)
same,GI50,NCI-H522,> 100 µM (inactive)
same,GI50,OVCAR-3,> 100 µM (inactive)
same,GI50,OVCAR-4,> 100 µM (inactive)
same,GI50,OVCAR-5,> 100 µM (inactive)
same,GI50,RPMI-8226,> 100 µM (inactive)
same,GI50,RXF 393,> 100 µM (inactive)
same,GI50,RXF 631,> 100 µM (inactive)
same,GI50,SF-268,> 100 µM (inactive)
same,GI50,SF-295,> 100 µM (inactive)
same,GI50,SF-539,> 100 µM (inactive)
same,GI50,SK-MEL-28,> 100 µM (inactive)
same,GI50,SK-MEL-2,> 100 µM (inactive)
same,GI50,SN12C,> 100 µM (inactive)
same,GI50,SNB-19,> 100 µM (inactive)
same,GI50,SNB-78,> 100 µM (inactive)
same,GI50,SR,> 100 µM (inactive)
same,GI50,SW-620,> 100 µM (inactive)
same,GI50,TK-10,> 100 µM (inactive)
same,GI50,U-251,> 100 µM (inactive)
same,GI50,UO-31,> 100 µM (inactive)
same,GI50,XF498,> 100 µM (inactive)
